Data on four compounds can be found in PMC8550792, “Evolution of kinase polypharmacology across HSP90 drug discovery” (Cell Chemical Biology, 2021).

Assay in all cases: biochemical
Holding throughout (format): biochemical

Assay [1] addresses T1, 382 unique human kinases (Homo sapiens, UniProt P21802, K641R).
T1 construct: purchased Reaction Biology (HotSpot contract assay)
Conditions: FGFR2 (K641R), 10 uM; for remaining activity at 10 µM: read-out: % Enzyme Activity (relative to DMSO controls).

For assay [2], the target named is T2, 382 unique human kinases (Homo sapiens, UniProt Q06187, P190K).
T2 construct: purchased Reaction Biology (HotSpot contract assay)
T2 sequence (Q06187 whole entry P190K): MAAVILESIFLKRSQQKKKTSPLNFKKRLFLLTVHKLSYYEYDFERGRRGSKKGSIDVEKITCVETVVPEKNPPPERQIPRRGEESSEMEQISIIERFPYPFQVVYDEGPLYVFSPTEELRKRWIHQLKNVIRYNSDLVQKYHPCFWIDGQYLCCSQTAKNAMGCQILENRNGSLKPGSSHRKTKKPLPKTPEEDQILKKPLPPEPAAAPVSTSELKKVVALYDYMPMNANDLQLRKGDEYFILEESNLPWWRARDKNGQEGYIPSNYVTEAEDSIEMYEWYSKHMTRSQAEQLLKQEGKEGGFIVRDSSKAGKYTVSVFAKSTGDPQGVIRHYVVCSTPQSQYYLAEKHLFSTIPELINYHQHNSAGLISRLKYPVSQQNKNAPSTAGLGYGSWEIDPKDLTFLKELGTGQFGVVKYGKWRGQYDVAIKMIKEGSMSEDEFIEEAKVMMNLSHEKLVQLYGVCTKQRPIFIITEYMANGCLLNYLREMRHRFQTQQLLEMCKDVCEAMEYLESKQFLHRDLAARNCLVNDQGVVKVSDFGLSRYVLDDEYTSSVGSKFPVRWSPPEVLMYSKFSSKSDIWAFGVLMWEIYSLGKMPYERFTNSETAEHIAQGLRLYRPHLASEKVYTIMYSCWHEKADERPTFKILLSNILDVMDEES
As to conditions: BTK (P190K), 10 uM; for remaining activity at 10 µM: read-out: % Enzyme Activity (relative to DMSO controls).

For assay [3], the target named is T3, 382 unique human kinases (Homo sapiens, UniProt Q13188).
T3 construct: purchased Reaction Biology (HotSpot contract assay)
T3 sequence (Q13188 1-491): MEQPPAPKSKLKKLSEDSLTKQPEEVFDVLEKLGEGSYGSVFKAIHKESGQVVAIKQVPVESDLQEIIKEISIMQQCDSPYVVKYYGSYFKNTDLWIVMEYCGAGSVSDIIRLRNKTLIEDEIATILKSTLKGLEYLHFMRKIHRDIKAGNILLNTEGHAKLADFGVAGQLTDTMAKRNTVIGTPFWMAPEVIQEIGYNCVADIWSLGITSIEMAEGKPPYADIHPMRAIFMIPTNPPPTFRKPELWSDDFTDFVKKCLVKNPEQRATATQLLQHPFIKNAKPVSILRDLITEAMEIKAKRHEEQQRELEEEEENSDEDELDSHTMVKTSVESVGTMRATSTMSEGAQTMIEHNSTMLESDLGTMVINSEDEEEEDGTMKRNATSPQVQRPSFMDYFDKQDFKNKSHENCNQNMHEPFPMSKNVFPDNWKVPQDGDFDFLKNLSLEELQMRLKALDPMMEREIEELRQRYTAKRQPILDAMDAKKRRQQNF
As to conditions: kinase MST2/STK3, compound 10 uM; for remaining activity at 10 µM: read-out: % Enzyme Activity (relative to DMSO controls).

Assay [4] deals with T4, 382 unique human kinases (Homo sapiens, UniProt Q9BYT3).
T4 construct: purchased Reaction Biology (HotSpot contract assay)
Conditions: kinase STK33, compound 10 uM; for remaining activity at 10 µM: read-out: % Enzyme Activity (relative to DMSO controls).

In assay [5] the target is T5, 382 unique human kinases (Homo sapiens, UniProt Q9UM73).
T5 construct: purchased Reaction Biology (HotSpot contract assay)
T5 sequence (Q9UM73 19-1620): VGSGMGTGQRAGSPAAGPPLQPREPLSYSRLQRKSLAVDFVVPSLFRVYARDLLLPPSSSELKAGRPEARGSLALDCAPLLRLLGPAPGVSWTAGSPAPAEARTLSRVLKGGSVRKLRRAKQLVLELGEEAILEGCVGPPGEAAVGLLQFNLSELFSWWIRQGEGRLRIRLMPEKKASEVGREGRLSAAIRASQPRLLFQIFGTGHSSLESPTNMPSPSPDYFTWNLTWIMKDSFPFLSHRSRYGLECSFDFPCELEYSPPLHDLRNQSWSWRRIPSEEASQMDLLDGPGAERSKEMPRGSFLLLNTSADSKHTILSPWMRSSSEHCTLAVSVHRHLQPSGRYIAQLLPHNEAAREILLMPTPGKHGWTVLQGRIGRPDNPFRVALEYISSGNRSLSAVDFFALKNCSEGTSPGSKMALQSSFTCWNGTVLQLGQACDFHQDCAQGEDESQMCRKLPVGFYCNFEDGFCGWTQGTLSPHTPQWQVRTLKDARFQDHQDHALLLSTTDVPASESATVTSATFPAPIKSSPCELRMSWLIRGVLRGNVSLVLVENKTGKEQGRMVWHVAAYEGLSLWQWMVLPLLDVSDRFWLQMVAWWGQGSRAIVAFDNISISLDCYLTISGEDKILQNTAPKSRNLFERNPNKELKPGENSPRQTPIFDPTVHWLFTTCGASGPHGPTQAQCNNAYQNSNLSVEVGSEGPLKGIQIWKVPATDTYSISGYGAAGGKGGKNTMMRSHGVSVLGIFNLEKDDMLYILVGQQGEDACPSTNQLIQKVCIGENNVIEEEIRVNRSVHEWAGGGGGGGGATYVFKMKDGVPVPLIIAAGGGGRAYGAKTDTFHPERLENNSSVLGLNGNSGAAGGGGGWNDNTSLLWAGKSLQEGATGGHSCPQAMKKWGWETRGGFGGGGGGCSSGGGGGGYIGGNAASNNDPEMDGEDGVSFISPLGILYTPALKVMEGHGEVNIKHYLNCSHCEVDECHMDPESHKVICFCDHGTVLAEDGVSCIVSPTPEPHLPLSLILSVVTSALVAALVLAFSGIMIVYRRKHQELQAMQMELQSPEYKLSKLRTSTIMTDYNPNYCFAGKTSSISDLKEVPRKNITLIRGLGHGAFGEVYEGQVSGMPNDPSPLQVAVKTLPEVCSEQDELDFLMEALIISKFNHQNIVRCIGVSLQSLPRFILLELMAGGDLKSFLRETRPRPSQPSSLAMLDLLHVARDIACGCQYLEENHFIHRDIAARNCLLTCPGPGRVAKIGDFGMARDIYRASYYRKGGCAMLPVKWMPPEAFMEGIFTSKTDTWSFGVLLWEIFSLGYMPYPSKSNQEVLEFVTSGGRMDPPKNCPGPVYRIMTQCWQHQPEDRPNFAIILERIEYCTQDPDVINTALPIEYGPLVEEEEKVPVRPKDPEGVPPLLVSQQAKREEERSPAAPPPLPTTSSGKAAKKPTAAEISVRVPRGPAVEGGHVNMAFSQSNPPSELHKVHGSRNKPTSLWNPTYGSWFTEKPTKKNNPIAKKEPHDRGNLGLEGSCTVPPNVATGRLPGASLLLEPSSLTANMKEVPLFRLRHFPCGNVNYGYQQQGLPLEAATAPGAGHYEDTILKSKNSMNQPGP
As to conditions: ALK, 10 uM; for remaining activity at 10 µM: read-out: % Enzyme Activity (relative to DMSO controls).

The target in assay [6] is T6, 382 unique human kinases (Homo sapiens, UniProt Q9UM73, R1275Q).
T6 construct: purchased Reaction Biology (HotSpot contract assay)
T6 sequence (Q9UM73 19-1620 R1275Q): as the sequence (Q9UM73 19-1620) above, with R1257Q counted along it
As to conditions: ALK (R1275Q), 10 uM; for remaining activity at 10 µM: read-out: % Enzyme Activity (relative to DMSO controls).

In assay [7] the target is T7, 382 unique human kinases (Homo sapiens, UniProt P00533, DEL746-750/T790M).
T7 construct: purchased Reaction Biology (HotSpot contract assay)
As to conditions: EGFR (d746-750/T790M), 10 uM; for remaining activity at 10 µM: read-out: % Enzyme Activity (relative to DMSO controls).

Assay [8] deals with T8, 382 unique human kinases (Homo sapiens, UniProt P07332).
T8 construct: purchased Reaction Biology (HotSpot contract assay)
Conditions: FES/FPS, 10 uM; for remaining activity at 10 µM: read-out: % Enzyme Activity (relative to DMSO controls).

Assay [9] concerns the target T9, 382 unique human kinases (Homo sapiens, UniProt P10721, V560G).
T9 construct: purchased Reaction Biology (HotSpot contract assay)
Conditions: c-Kit (V560G), [ATP] 20 µM, compound 10 uM; for remaining activity at 10 µM: read-out: % Enzyme Activity (relative to DMSO controls).

The target of assay [10] is T10, 382 unique human kinases (Homo sapiens, UniProt P12931).
T10 construct: purchased Reaction Biology (HotSpot contract assay)
T10 sequence (P12931 whole entry): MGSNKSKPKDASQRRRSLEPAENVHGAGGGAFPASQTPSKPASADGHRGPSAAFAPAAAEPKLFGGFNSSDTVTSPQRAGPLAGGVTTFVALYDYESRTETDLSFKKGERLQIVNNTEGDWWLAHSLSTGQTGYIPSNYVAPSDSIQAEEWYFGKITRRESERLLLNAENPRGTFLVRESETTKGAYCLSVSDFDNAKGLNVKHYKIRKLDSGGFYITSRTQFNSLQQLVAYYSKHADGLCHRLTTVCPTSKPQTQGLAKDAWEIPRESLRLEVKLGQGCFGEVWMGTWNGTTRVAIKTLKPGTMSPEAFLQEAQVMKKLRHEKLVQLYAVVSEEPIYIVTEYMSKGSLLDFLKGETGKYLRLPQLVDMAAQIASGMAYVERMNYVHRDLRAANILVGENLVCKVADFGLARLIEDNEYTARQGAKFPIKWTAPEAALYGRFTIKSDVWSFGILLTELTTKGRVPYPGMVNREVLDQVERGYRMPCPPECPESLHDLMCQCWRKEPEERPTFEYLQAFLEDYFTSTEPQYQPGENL
As to conditions: c-Src, [ATP] 15 µM.

The target of assay [11] is T11, 382 unique human kinases (Homo sapiens, UniProt P15056).
T11 construct: purchased Reaction Biology (HotSpot contract assay)
Conditions: BRAF, 10 uM; for remaining activity at 10 µM: read-out: % Enzyme Activity (relative to DMSO controls).

Assay [12] addresses T12, 382 unique human kinases (Homo sapiens, UniProt P23458).
T12 construct: purchased Reaction Biology (HotSpot contract assay)
As to conditions: JAK1, 10 uM; for remaining activity at 10 µM: read-out: % Enzyme Activity (relative to DMSO controls).

Assay [13] addresses T13, 382 unique human kinases (Homo sapiens, UniProt Q96BR1).
T13 construct: purchased Reaction Biology (HotSpot contract assay)
T13 sequence (Q96BR1 1-496): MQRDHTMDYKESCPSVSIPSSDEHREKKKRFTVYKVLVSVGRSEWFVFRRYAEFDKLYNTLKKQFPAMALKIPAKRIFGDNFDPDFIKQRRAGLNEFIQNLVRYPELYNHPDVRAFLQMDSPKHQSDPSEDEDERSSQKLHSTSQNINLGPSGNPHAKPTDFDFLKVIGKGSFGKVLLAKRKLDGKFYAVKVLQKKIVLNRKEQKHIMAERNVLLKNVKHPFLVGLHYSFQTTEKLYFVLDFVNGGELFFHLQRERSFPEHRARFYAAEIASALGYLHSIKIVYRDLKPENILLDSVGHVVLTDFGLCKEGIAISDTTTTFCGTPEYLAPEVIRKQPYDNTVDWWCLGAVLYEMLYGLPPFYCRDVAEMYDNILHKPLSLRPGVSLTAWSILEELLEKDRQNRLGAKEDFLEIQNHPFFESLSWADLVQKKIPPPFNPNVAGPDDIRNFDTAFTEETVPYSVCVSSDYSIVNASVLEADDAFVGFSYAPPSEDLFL
Conditions: SGK3/SGKL, 10 uM; for remaining activity at 10 µM: read-out: % Enzyme Activity (relative to DMSO controls).

The target in assay [14] is T14, 382 unique human kinases (Homo sapiens, UniProt Q9UEE5).
T14 construct: purchased Reaction Biology (HotSpot contract assay)
T14 sequence (Q9UEE5 1-414): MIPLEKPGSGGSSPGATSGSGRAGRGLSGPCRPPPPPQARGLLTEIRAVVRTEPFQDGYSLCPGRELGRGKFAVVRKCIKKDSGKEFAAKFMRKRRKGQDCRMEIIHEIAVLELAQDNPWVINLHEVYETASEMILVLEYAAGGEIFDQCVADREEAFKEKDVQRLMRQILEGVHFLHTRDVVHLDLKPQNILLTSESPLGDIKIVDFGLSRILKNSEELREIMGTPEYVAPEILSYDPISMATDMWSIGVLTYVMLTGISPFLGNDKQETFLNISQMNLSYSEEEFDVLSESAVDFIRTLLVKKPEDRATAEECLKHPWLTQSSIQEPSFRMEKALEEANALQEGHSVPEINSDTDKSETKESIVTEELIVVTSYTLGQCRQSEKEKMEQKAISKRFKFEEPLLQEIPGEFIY
As to conditions: DRAK1/STK17A, 10 uM; for remaining activity at 10 µM: read-out: % Enzyme Activity (relative to DMSO controls).

Assay [15] deals with 382 unique human kinases (Homo sapiens, UniProt Q9Y463). As to conditions: DYRK1B, [ATP] 20 µM, compound 10 uM; for remaining activity at 10 µM: read-out: % Enzyme Activity (relative to DMSO controls).
Where [16] appears, read: compound 10 uM, read-out: % Enzyme Activity (relative to DMSO controls).

The structures appear in SMILES notation.

T1 sequence (P21802 22-821 K641R): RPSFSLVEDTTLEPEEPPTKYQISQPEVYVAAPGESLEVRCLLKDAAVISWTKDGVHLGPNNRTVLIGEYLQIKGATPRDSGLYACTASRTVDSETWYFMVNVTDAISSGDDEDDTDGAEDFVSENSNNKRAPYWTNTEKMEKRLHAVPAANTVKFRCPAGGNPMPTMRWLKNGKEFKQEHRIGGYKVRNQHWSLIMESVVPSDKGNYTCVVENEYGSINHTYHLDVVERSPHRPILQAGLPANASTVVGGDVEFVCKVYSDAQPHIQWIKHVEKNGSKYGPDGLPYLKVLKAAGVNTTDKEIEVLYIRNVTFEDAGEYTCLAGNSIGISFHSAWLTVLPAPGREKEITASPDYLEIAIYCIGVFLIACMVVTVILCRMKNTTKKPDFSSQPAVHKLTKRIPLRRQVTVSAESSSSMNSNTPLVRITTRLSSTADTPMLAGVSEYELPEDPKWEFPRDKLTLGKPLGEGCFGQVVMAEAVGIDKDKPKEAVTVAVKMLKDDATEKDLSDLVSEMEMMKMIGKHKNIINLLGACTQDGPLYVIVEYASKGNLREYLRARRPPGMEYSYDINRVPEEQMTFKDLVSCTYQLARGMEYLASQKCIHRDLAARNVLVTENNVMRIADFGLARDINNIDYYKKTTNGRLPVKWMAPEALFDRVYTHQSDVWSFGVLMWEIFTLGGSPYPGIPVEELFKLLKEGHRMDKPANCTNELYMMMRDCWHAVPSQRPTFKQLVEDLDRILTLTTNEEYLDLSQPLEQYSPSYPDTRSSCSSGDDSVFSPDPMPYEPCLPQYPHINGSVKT
T12 sequence (P23458 whole entry): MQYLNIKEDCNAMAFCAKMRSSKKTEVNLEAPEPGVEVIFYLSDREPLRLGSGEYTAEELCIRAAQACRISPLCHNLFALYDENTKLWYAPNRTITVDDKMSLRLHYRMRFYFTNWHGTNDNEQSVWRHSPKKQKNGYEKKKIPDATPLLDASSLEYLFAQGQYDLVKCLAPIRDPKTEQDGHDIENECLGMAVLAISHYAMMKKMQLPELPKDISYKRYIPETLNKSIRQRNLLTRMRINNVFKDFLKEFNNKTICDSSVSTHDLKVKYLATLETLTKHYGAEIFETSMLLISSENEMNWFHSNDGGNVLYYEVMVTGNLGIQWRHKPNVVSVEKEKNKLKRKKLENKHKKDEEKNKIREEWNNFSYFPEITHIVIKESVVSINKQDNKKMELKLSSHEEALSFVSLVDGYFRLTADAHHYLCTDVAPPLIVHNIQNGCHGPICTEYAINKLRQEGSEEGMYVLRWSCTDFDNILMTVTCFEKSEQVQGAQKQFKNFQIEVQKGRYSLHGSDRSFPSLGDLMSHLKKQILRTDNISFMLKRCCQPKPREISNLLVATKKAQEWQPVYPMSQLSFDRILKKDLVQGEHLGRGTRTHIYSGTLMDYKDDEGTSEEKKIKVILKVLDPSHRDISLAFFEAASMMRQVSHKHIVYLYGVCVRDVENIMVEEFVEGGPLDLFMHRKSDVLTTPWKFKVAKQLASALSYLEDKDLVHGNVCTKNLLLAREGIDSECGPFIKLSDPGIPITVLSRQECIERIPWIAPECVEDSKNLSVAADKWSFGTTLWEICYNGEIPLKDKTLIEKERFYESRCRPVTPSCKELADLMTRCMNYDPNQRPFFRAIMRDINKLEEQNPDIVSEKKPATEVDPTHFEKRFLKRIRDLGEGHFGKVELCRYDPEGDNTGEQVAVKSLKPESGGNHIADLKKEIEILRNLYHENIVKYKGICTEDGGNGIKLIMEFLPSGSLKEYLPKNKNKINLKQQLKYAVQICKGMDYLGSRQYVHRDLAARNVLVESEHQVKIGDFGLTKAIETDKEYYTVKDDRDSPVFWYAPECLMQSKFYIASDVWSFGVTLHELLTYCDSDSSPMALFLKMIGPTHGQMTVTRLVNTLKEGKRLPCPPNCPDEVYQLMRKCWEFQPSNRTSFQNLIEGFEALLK

In the case of `CC(C)c1cc(-c2n[nH]c(=O)n2-c2ccc3c(ccn3C)c2)c(O)cc1O` [Ganetespib (STA9090)], the remaining activity at 10 µM in [1] turned out to be 78%; in assay [2], 62.1%; in assay [3], 78.8%; in assay [4], 81.4%; in [5], 67.5%; in assay [6], 65.1%.

Turning to `CC(C)c1cc(-c2n[nH]c(=O)n2-c2ccc3c(ccn3C)c2)c(O)cc1O` [Ganetespib], the remaining activity at 10 µM in [7] came to 118%; in [8], 98.6%; in assay [9] it was 58.9%; in assay [10] (setting [16]), 9.14%; in assay [11], 98.1%; in assay [12], 95%. For the same compound, the remaining activity at 10 µM in assay [13] stood at 101%; in [14], 106%; in [15], 45%. Besides, in [10] (compound 1 uM, read-out: % Enzyme Activity (relative to DMSO controls)), the remaining activity at 1 µM came out at 38.8%.

Turning to `CCNC(=O)c1noc(-c2cc(C(C)C)c(O)cc2O)c1-c1ccc(CN2CCOCC2)cc1` [Luminespib (AUY-922)], the “% Enzyme Activity (relative to DMSO controls)” value in assay [1] was 98.16%; in assay [2], 61.43%; in assay [3], 89.89%; in [4], 103.02%; in [5], 95.41%; in assay [6] it was 101.49%. For the same compound, the remaining activity at 10 µM in assay [1] worked out at 98.4%; in assay [2], 61.9%; in [3], 93.3%; in assay [4] it was 104%; in assay [5], 97.2%; in [6], 102%.

Regarding `CCNC(=O)c1noc(-c2cc(C(C)C)c(O)cc2O)c1-c1ccc(CN2CCOCC2)cc1` [Luminespib], the “% Enzyme Activity (relative to DMSO controls)” value in assay [7] worked out at 99.12%; in assay [8] it was 99.33%; in assay [9], 109.32%; in assay [10] (compound 10 uM), 33.43%; in assay [11], 103.97%; in assay [12], 94.10%. Moreover, the “% Enzyme Activity (relative to DMSO controls)” value is on record as 105.88% in assay [13], 99.90% in assay [14] and 97.25% in assay [15]. In addition, the remaining activity at 10 µM came out at 100% in [7]; 99.4% in assay [8]; 111% in assay [9]; 36.4% in assay [10] (setting [16]); 105% in assay [11]; 96.1% in [12]. In addition, the remaining activity at 10 µM turned out to be 106% in assay [13], 99.9% in [14] and 98.9% in assay [15].
